Test results published in publication PMC4450297, “Screening Active Compounds from Garcinia Species Native to China Reveals Novel Compounds Targeting the STAT/JAK Signaling Pathway” (BioMed Research International, 2015).

Test system: SW13
Assay: Cell panel screen (CellTiter-Glo)
Format: cell-based, human
Conditions: SW13 (Adrenal gland), 20 micromolar, 72 hrs
How it was run: (§1)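 Single-concentration screen: 20 μM compound, 72 h, versus DMSO-only untreated cells. Viability read by CellTiter-Glo luminescence; % inhibition = (untreated − treated)/(untreated − no-cell background) × 100. Cells grown in recommended media plus 10% FBS at 37° C.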

Compound	Percent Inhibition [%]
CC(C)=CCc1c2c(c(O)c3c1O[C@]14C(=C[C@@H]5C[C@H]1C(C)(C)O[C@@]4(C/C=C(\C)CO)C5=O)C3=O)C=CC(C)(C)O2 [GB18]	99

Test system: HCC1569
Assay: Cell panel screen (CellTiter-Glo)
Format: cell-based, human
Conditions: HCC1569 (Breast), 20 micromolar, 72 hrs
How it was run: as §1

Compound	Percent Inhibition [%]
CC(C)=CCc1c2c(c(O)c3c1O[C@]14C(=C[C@@H]5C[C@H]1C(C)(C)O[C@@]4(C/C=C(\C)CO)C5=O)C3=O)C=CC(C)(C)O2 [GB18]	99

Test system: BT-474
Assay: Cell panel screen (CellTiter-Glo)
Format: cell-based, human
Conditions: BT-474 (Breast), 20 micromolar, 72 hrs
How it was run: as §1

Compound	Percent Inhibition [%]
CC(C)=CCc1c2c(c(O)c3c1O[C@]14C(=C[C@@H]5C[C@H]1C(C)(C)O[C@@]4(C/C=C(\C)CO)C5=O)C3=O)C=CC(C)(C)O2 [GB18]	99

Test system: T98G
Assay: Cell panel screen (CellTiter-Glo)
Format: cell-based, human
Conditions: T98G (Brain), 20 micromolar, 72 hrs
How it was run: as §1

Compound	Percent Inhibition [%]
CC(C)=CCc1c2c(c(O)c3c1O[C@]14C(=C[C@@H]5C[C@H]1C(C)(C)O[C@@]4(C/C=C(\C)CO)C5=O)C3=O)C=CC(C)(C)O2 [GB18]	99

Test system: TCCSUP
Assay: Cell panel screen (CellTiter-Glo)
Format: cell-based, human
Conditions: TCCSUP (Urinary bladder), 20 micromolar, 72 hrs
How it was run: as §1

Compound	Percent Inhibition [%]
CC(C)=CCc1c2c(c(O)c3c1O[C@]14C(=C[C@@H]5C[C@H]1C(C)(C)O[C@@]4(C/C=C(\C)CO)C5=O)C3=O)C=CC(C)(C)O2 [GB18]	99

Test system: HGC-27
Assay: Cell panel screen (CellTiter-Glo)
Format: cell-based, human
Conditions: HGC-27 (Stomach), 20 micromolar, 72 hrs
How it was run: as §1

Compound	Percent Inhibition [%]
CC(C)=CCc1c2c(c(O)c3c1O[C@]14C(=C[C@@H]5C[C@H]1C(C)(C)O[C@@]4(C/C=C(\C)CO)C5=O)C3=O)C=CC(C)(C)O2 [GB18]	99

Test system: C3A
Assay: Cell panel screen (CellTiter-Glo)
Format: cell-based, human
Conditions: C3A (Liver), 20 micromolar, 72 hrs
How it was run: as §1

Compound	Percent Inhibition [%]
CC(C)=CCc1c2c(c(O)c3c1O[C@]14C(=C[C@@H]5C[C@H]1C(C)(C)O[C@@]4(C/C=C(\C)CO)C5=O)C3=O)C=CC(C)(C)O2 [GB18]	99

Test system: J82
Assay: Cell panel screen (CellTiter-Glo)
Format: cell-based, human
Conditions: J82 (Urinary bladder), 20 micromolar, 72 hrs
How it was run: as §1

Compound	Percent Inhibition [%]
CC(C)=CCc1c2c(c(O)c3c1O[C@]14C(=C[C@@H]5C[C@H]1C(C)(C)O[C@@]4(C/C=C(\C)CO)C5=O)C3=O)C=CC(C)(C)O2 [GB18]	99

Test system: Colo 205
Assay: Cell panel screen (CellTiter-Glo)
Format: cell-based, human
Conditions: Colo 205, 20 micromolar, 72 hrs
How it was run: as §1

Compound	Percent Inhibition [%]
CC(C)=CCc1c2c(c(O)c3c1O[C@]14C(=C[C@@H]5C[C@H]1C(C)(C)O[C@@]4(C/C=C(\C)CO)C5=O)C3=O)C=CC(C)(C)O2 [GB18]	99

Test system: C8166
Assay: Cell panel screen (CellTiter-Glo)
Format: cell-based, human
Conditions: C8166 (Leukemia), 20 micromolar, 72 hrs
How it was run: as §1

Compound	Percent Inhibition [%]
CC(C)=CCc1c2c(c(O)c3c1O[C@]14C(=C[C@@H]5C[C@H]1C(C)(C)O[C@@]4(C/C=C(\C)CO)C5=O)C3=O)C=CC(C)(C)O2 [GB18]	99

Test system: HCC1395
Assay: Cell panel screen (CellTiter-Glo)
Format: cell-based, human
Conditions: HCC1395 (Breast), 20 micromolar, 72 hrs
How it was run: as §1

Compound	Percent Inhibition [%]
CC(C)=CCc1c2c(c(O)c3c1O[C@]14C(=C[C@@H]5C[C@H]1C(C)(C)O[C@@]4(C/C=C(\C)CO)C5=O)C3=O)C=CC(C)(C)O2 [GB18]	99

Test system: HEC-1-A
Assay: Cell panel screen (CellTiter-Glo)
Format: cell-based, human
Conditions: HEC-1-A (Uterus), 20 micromolar, 72 hrs
How it was run: as §1

Compound	Percent Inhibition [%]
CC(C)=CCc1c2c(c(O)c3c1O[C@]14C(=C[C@@H]5C[C@H]1C(C)(C)O[C@@]4(C/C=C(\C)CO)C5=O)C3=O)C=CC(C)(C)O2 [GB18]	99

Test system: NCI-H28
Assay: Cell panel screen (CellTiter-Glo)
Format: cell-based, human
Conditions: NCI-H28 (Lung), 20 micromolar, 72 hrs
How it was run: as §1

Compound	Percent Inhibition [%]
CC(C)=CCc1c2c(c(O)c3c1O[C@]14C(=C[C@@H]5C[C@H]1C(C)(C)O[C@@]4(C/C=C(\C)CO)C5=O)C3=O)C=CC(C)(C)O2 [GB18]	98

Test system: BT-549
Assay: Cell panel screen (CellTiter-Glo)
Format: cell-based, human
Conditions: BT-549 (Breast), 20 micromolar, 72 hrs
How it was run: as §1

Compound	Percent Inhibition [%]
CC(C)=CCc1c2c(c(O)c3c1O[C@]14C(=C[C@@H]5C[C@H]1C(C)(C)O[C@@]4(C/C=C(\C)CO)C5=O)C3=O)C=CC(C)(C)O2 [GB18]	99

Test system: HCC1599
Assay: Cell panel screen (CellTiter-Glo)
Format: cell-based, human
Conditions: HCC1599 (Breast), 20 micromolar, 72 hrs
How it was run: as §1

Compound	Percent Inhibition [%]
CC(C)=CCc1c2c(c(O)c3c1O[C@]14C(=C[C@@H]5C[C@H]1C(C)(C)O[C@@]4(C/C=C(\C)CO)C5=O)C3=O)C=CC(C)(C)O2 [GB18]	99

Test system: NCI-H1694
Assay: Cell panel screen (CellTiter-Glo)
Format: cell-based, human
Conditions: NCI-H1694 (Lung), 20 micromolar, 72 hrs
How it was run: as §1

Compound	Percent Inhibition [%]
CC(C)=CCc1c2c(c(O)c3c1O[C@]14C(=C[C@@H]5C[C@H]1C(C)(C)O[C@@]4(C/C=C(\C)CO)C5=O)C3=O)C=CC(C)(C)O2 [GB18]	99

Test system: ZR-75-30
Assay: Cell panel screen (CellTiter-Glo)
Format: cell-based, human
Conditions: ZR-75-30 (Breast), 20 micromolar, 72 hrs
How it was run: as §1

Compound	Percent Inhibition [%]
CC(C)=CCc1c2c(c(O)c3c1O[C@]14C(=C[C@@H]5C[C@H]1C(C)(C)O[C@@]4(C/C=C(\C)CO)C5=O)C3=O)C=CC(C)(C)O2 [GB18]	99

Test system: HPAF-II
Assay: Cell panel screen (CellTiter-Glo)
Format: cell-based, human
Conditions: HPAF-II (Pancreas), 20 micromolar, 72 hrs
How it was run: as §1

Compound	Percent Inhibition [%]
CC(C)=CCc1c2c(c(O)c3c1O[C@]14C(=C[C@@H]5C[C@H]1C(C)(C)O[C@@]4(C/C=C(\C)CO)C5=O)C3=O)C=CC(C)(C)O2 [GB18]	99
